Assay results as given in US20230092359A1, “GEMFIBROZIL FORMULATION” (Polaryx Therapeutics, Inc., priority 2020, published 2023).
Values after ≈ are worked out from the molar mass of the structure shown. Where two headings read alike, the source gives them in different places.

What was measured:
[1] = Dissolution of free-form gemfibrozil in artificial saliva (USP <711> apparatus 2, HPLC); assay type: physicochemical; conditions: 4 hours; 600 mg in 900 mL pH 7.3 artificial saliva, 100 rpm, 37° C. (FIG. 1)
Description: USP <711> dissolution apparatus 2 (paddle method) was used. Dissolution medium was 900 mL of artificial saliva, pH 7.30. The temperature was maintained at 37° C. The paddles were rotated at 100 RPM. Six-hundred milligrams of gemfibrozil was added into each vessel at t=0. Samples aliquots of 2 mL were taken at 0.25, 0.5, 1, 2, 3, and 4 hours and filtered immediately using a 0.45 μm Nylon membrane syringe filter, whereby the filtrate was diluted at a 1:1 ratio with methanol and then vortexed. Samples were analyzed by HPLC.

[2] = cited from earlier work
physchem = conditions: pH 7.3, fassgf or other biorelevant, thermodynamic from solid
Description: The solution was then mixed by vortexing or sonicating, until complete dissolution was observed.
Kinetic Solubilities/Visual Solubility Assessment—Weighed samples were treated with aliquots of solvent at ambient temperature unless otherwise indicated. Samples were typically sonicated between additions to facilitate dissolution. Complete dissolution was observed through visual inspection. Solubilities were calculated based on the total amount of solvent added to achieve complete dissolution and may be greater than the value reported due to incremental solvent addition and the inherent kinetics of dissolution. […] These values are approximate. These values may also over-represent the amount of solvent required given that solvent was added incrementally. Approximately 10 mg of gemfibrozil salt was weighed into a vial. Artificial saliva was added to the vial until complete dissolution was observed. Each volume addition was followed by vortex mixing or sonication and observation on the presence of solids was noted.
Solubility descriptors were used as follows—Practically insoluble refers to a compound that is soluble at less than 0.1 mg/ml in solution. […] Slightly soluble, refers to a compound that is soluble in an aqueous solution from 1 mg/ml to 10 mg/ml. Sparingly soluble, refers to a compound that is soluble in an aqueous solution from 10 mg/ml to 30 mg/ml. […]

[3] = Dynamic vapor sorption (DVS); assay type: physicochemical; set-up: key to Hysteresis: % change in weight (DVS sorption/desorption); conditions: for Hysteresis: in % (unit assumed); for state of post-DVS sample: after sorption/desorption cycle 5%-95%-5% relative humidity; for Desorp Mass Change: desorption; for gained moisture retained: following desorption from 95% to 5% relative humidity; for Sorp Mass Change: sorption
Source text: In an embodiment, ethanolamine gemfibrozil salt Form A has a low hygroscopicity below approximately 55% relative humidity, meaning less than 0.5% increases in weight below approximately 55% relative humidity, which may be determined using dynamic vapor sorption (DVS) to detect changes in weight of the salt in response to changes in relative humidity. […] Table 6 lists the percent change in weight of ethanolamine gemfibrozil salt Form A (Sorp Mass Change (%)) in 10% relative humidity increments from its initial weight at 5% relative humidity to its weight at 95% relative humidity.
Dynamic Vapor Sorption (DVS)—Moisture sorption/desorption data were collected on a SMS Intrinsic Dynamic Vapor Sorption Analyzer. Sodium chloride and PVP were used as calibration standard. Samples were not dried prior to analysis. Sorption and desorption data were collected over a range from 5% to 95% relative humidity at 10% relative humidity increments under a nitrogen purge. The equilibrium criterion used for analysis was less than 0.0100% weight change in 5 minutes with a maximum equilibration time of 3 hours. Data were not corrected for the initial moisture content of the samples.

[4] = equivalent to 100 mg free form in 250 ml pH 7.3 artificial saliva, 37° C., 50 RPM
Description: Dissolution experiments using the salt forms of gemfibrozil were performed using a VanKel VK7010 dissolution apparatus equipped with a VK750D heater/circulator. The 2 paddle method was used. Dissolution medium was 250 mL of artificial saliva, pH 7.30. The temperature was maintained at 37° C. The paddles were rotated at 50 RPM. […] Samples aliquots of 2 mL were taken at 5, 10, and 15 minutes and filtered immediately using a […] Nylon membrane syringe filter. Samples were analyzed by HPLC.

[5] = Thermogravimetric analysis (TGA); assay type: physicochemical
Description: Thermogravimetric Analysis (TGA)—TG analysis was performed using a Mettler-Toledo TGA/DSC3+ analyzer. Temperature and enthalpy adjustments were performed using indium, tin, and zinc, and then verified with indium. The balance was verified with calcium oxalate. The sample was placed in an open aluminum pan. The pan was hermetically sealed, the lid pierced, then inserted into the TG furnace. A weighed aluminum pan configured as the sample pan was placed on the reference platform. The furnace was heated under nitrogen. The data acquisition parameters for the thermogram are determined.

[6] = XRPD form check after humidity stress; assay type: physicochemical
Source text: In an example, an L-arginine gemfibrozil salt was stressed for one day at 75% relative humidity.
The observed peaks of the post-DVS salt were consistent with the pattern of peaks observed for an L-lysine gemfibrozil salt Material A prepared prior to exposure to increased relative humidities (FIG. 15).
X-Ray Powder Diffraction (XRPD)—XRPD patterns were collected with a PANalytical X'Pert PRO MPD or PANalytical Empyrean diffractometers using an incident beam of Cu radiation produced using an Optix long, fine-focus source. An elliptically graded multilayer mirror was used to focus Cu Kα X-rays through the specimen and onto the detector. Prior to analysis, a silicon specimen (NIST SRM 640e) was analyzed to verify the observed position of the Si 111 peak is consistent with the NIST-certified position. A specimen of the sample was sandwiched between 3 μm thick films and analyzed in transmission geometry. A beam-stop, short antiscatter extension, and antiscatter knife edge were used to minimize the background generated by air. Soller slits for the incident and diffracted beams were used to minimize broadening from axial divergence. Diffraction patterns were collected using a scanning position-sensitive detector (X'Celerator) located […] from the specimen and Data Collector software v. 5.5.

[7] = sorption from 5% to 85% relative humidity
[8] = sorption from 85% to 95% relative humidity
[9] = equilibrium, 1.5 ml pH 7.3 artificial saliva, 16 hours

## Cc1ccc(C)c(OCCCC(C)(C)C(=O)O)c1 [Free Form, 5-(2,5-dimethylphenoxy)-2,2-dimethyl-pentanoic acid]
[1]
  average % of free-form gemfibrozil dissolved: 78%
[2]; in DMSO
  solubility: ~16000 µg/mL (≈ 63.9 mM)
[2]; in a 1:1 solution of ethanol:PBS
  solubility: approximately 0.5 mg/mL
[2]; in ethanol
  solubility: approximately 30 mg/ml
[2]; in water
  solubility: approximately 0.03 mg/ml
physchem
  solubility: < 1100 µg/mL

## Cc1ccc(C)c(OCCCC(C)(C)C(=O)O)c1.N=C(N)NCCCC(N)C(=O)O [Arginine Material A]
[3]; Target RH 15.0%
  Hysteresis: 6.09
  Desorp Mass Change: 6.12%
  Sorp Mass Change: 0.03%
[3]; Target RH 25.0%
  Hysteresis: 6.79
  Desorp Mass Change: 6.85%
  Sorp Mass Change: 0.06%
[3]; Target RH 35.0%
  Hysteresis: 7.73
  Desorp Mass Change: 7.89%
  Sorp Mass Change: 0.16%
[3]; Target RH 45.0%
  Hysteresis: 9.27
  Desorp Mass Change: 9.51%
  Sorp Mass Change: 0.25%
[3]; Target RH 55.0%
  Hysteresis: 11.46
  Desorp Mass Change: 11.75%
  Sorp Mass Change: 0.28%
[3]; Target RH 65.0%
  Hysteresis: 14.60
  Desorp Mass Change: 14.95%
  Sorp Mass Change: 0.35%
[3]; Target RH 75.0%
  Hysteresis: 18.97
  Desorp Mass Change: 19.47%
  Sorp Mass Change: 0.50%
[3]; Target RH 85.0%
  Hysteresis: 25.96
  Desorp Mass Change: 26.79%
  Sorp Mass Change: 0.83%
[3]
  state of post-DVS sample: deliquesced
  gained moisture retained: approximately 5.6%
[3]; Target RH 5.0%
  Desorp Mass Change: 5.55%
  Sorp Mass Change: 0.00%
[3]; Target RH 95.0%
  Desorp Mass Change: 45.96%
  Sorp Mass Change: 45.96%
[3]; [7]
  percent increase in mass: approximately 0.8%
[3]; [8]
  percent change in mass: 45.1%
[4]; 5 min
  Average % Gemfibrozil dissolved: 96.64%
[4]; 5 min, listed as L-arginine gemfibrozil salt Material A
  Average % Gemfibrozil dissolved: 96.6%
[4]; 10 min
  Average % Gemfibrozil dissolved: 94.40%
[4]; 15 min
  Average % Gemfibrozil dissolved: 94.27%
[5]
  temperature until which weight does not decrease (may be the onset of decomposition): approximately 207 °C
[5]; between 44° C. and 125° C.
  weight loss: approximately 0.1%
[6]; stressed for one day at 75% relative humidity
  form change by XRPD: did not undergo a form change
[9]
  Observations: No excess solids

## Cc1ccc(C)c(OCCCC(C)(C)C(=O)O)c1.NCCCCC(N)C(=O)O [Lysine Material A]
[3]; Target RH 15.0%
  Hysteresis: 2.48
  Desorp Mass Change: 2.53%
  Sorp Mass Change: 0.04%
[3]; Target RH 25.0%
  Hysteresis: 3.61
  Desorp Mass Change: 2.81%
  Sorp Mass Change: 0.19%
[3]; Target RH 35.0%
  Hysteresis: 2.69
  Desorp Mass Change: 3.09%
  Sorp Mass Change: 0.40%
[3]; Target RH 45.0%
  Hysteresis: 2.54
  Desorp Mass Change: 3.45%
  Sorp Mass Change: 0.91%
[3]; Target RH 55.0%
  Hysteresis: 2.30
  Desorp Mass Change: 4.09%
  Sorp Mass Change: 1.79%
[3]; Target RH 65.0%
  Hysteresis: 2.09
  Desorp Mass Change: 5.25%
  Sorp Mass Change: 3.15%
[3]; Target RH 75.0%
  Hysteresis: 3.16
  Desorp Mass Change: 9.49%
  Sorp Mass Change: 6.32%
[3]; Target RH 85.0%
  Hysteresis: 13.47
  Desorp Mass Change: 27.95%
  Sorp Mass Change: 14.48%
[3]
  state of post-DVS sample: deliquesced
  gained moisture retained: approximately 2.1%
[3]; Target RH 5.0%
  Desorp Mass Change: 2.09%
  Sorp Mass Change: 0.00%
[3]; Target RH 95.0%
  Desorp Mass Change: 38.97%
  Sorp Mass Change: 38.97%
[3]; sorption from 5% to 25% relative humidity
  percent increase in mass: approximately 0.2%
[3]; [7]
  percent increase in mass: approximately 14.5%
[3]; [8]
  percent change in mass: approximately 24.5%
[4]; 5 min
  Average % Gemfibrozil dissolved: 96.29%
[4]; 5 min, listed as L-lysine gemfibrozil salt Material A
  Average % Gemfibrozil dissolved: 96.3%
[4]; 10 min
  Average % Gemfibrozil dissolved: 93.51%
[4]; 15 min
  Average % Gemfibrozil dissolved: 94.67%
[5]
  temperature until which weight does not decrease (may be the onset of decomposition): approximately 165 °C
[6]; post-DVS sample, exposure to increased relative humidity
  form change by XRPD: did not undergo a form change
[9]
  Observations: No excess solids

## Cc1ccc(C)c(OCCCC(C)(C)C(=O)O)c1.NCCO [Ethanolamine Form A]
[3]; Target RH 15.0%
  Hysteresis: 2.60
  Desorp Mass Change: 2.60%
  Sorp Mass Change: 0.00%
[3]; Target RH 25.0%
  Hysteresis: 3.56
  Desorp Mass Change: 3.56%
  Sorp Mass Change: 0.00%
[3]; Target RH 35.0%
  Hysteresis: 4.87
  Desorp Mass Change: 4.88%
  Sorp Mass Change: 0.01%
[3]; Target RH 45.0%
  Hysteresis: 6.67
  Desorp Mass Change: 6.70%
  Sorp Mass Change: 0.03%
[3]; Target RH 55.0%
  Hysteresis: 9.19
  Desorp Mass Change: 9.29%
  Sorp Mass Change: 0.10%
[3]; Target RH 65.0%
  Hysteresis: 1.78
  Desorp Mass Change: 12.93%
  Sorp Mass Change: 11.14%
[3]; Target RH 75.0%
  Hysteresis: 0.64
  Desorp Mass Change: 18.56%
  Sorp Mass Change: 17.93%
[3]; Target RH 85.0%
  Hysteresis: 4.16
  Desorp Mass Change: 31.49%
  Sorp Mass Change: 27.33%
[3]
  state of post-DVS sample: deliquesced
  gained moisture retained: approximately 2%
[3]; Target RH 5.0%
  Desorp Mass Change: 1.92%
  Sorp Mass Change: 0.00%
[3]; Target RH 95.0%
  Desorp Mass Change: 45.05%
  Sorp Mass Change: 45.05%
[3]; sorption from 5% to 55% relative humidity
  percent increase in mass: approximately 0.1%
[3]; sorption from 55% to 95% relative humidity
  percent change in mass: 44.9%
[4]; 5 min
  Average % Gemfibrozil dissolved: 97.30%
[4]; 5 min, listed as ethanolamine gemfibrozil salt Form A
  Average % Gemfibrozil dissolved: 97.3%
[4]; 10 min
  Average % Gemfibrozil dissolved: 94.80%
[4]; 15 min
  Average % Gemfibrozil dissolved: 95.84%
[5]
  temperature until which weight does not decrease (may be the onset of decomposition): approximately 140 °C
pH 7.3
  Observations: No excess solids
